Test results published in patent US10851089B2, “Matrix metalloproteinase (MMP) inhibitors and methods of use thereof” (Foresee Pharmaceuticals Co., Ltd., priority 2018, dated 2020).
Read-outs that look alike come from different tables or passages of the source.

Columns and labels:
[1] = target: recombinant human MMP-12 catalytic domain (Homo sapiens (Human), UniProt P39900); test: MMP-12 inhibitory assay (fluorogenic substrate cleavage); assay type: biochemical
Protocol: (§1) The inhibitory effect of compounds on the rate of cleaving fluorogenic MMP substrate (Enzo, BML-P128) by recombinant human MMP-12 catalytic domain (Enzo, BML-SE138) was carried out by methods known in the art. Briefly, to each well of a 96-well black opaque plate, all the reagents were sequentially added by pipetting, and the final reaction contained 4 nM of recombinant human MMP-12 catalytic domain, 4 μM of fluorogenic MMP substrate, and various concentrations (0.15 nM to 10,000 nM) of tested compound dilutions in HEPES buffer (pH 7.5) containing 10 mM of CaCl2, 0.01% Brij® 35 (polyoxyethylene (23) lauryl ether), and 0.1 mg/ml of BSA.
(§2) The enzyme and compounds were pre-incubated on a shaker to mix in wells. After an hour of mixing, fluorogenic substrate was added to each well. Reaction without enzyme was used as a blank control in the plate. The plate was then fed into a plate reader to measure fluorescence intensity at Excitation/Emission wavelengths of 340 nm/440 nm every 10 mins for at least 1 hour at 37° C. The IC50 of each compound in MMP-12 inhibition was determined by using a readout obtained at time point 30 minutes.

recombinant human MMP-2 = recombinant human MMP-2 (Homo sapiens (Human), UniProt P08253); test: MMP selectivity assay MMP-2; assay type: biochemical
Chain of recombinant human MMP-2 (P08253 110-660): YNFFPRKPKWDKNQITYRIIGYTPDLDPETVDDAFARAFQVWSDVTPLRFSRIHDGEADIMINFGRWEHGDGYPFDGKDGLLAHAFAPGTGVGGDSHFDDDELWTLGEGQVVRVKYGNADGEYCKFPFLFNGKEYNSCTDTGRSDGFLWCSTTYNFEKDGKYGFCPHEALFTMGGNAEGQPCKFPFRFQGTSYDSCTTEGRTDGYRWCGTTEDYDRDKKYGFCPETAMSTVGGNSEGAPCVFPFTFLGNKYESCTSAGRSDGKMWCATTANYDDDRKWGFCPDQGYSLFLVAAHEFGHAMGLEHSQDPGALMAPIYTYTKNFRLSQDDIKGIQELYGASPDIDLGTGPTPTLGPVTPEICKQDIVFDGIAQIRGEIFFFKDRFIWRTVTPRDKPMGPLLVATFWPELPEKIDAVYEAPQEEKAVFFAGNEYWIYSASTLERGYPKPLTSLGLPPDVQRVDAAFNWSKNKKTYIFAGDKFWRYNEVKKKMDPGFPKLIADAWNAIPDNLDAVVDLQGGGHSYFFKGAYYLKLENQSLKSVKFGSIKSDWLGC
Protocol: as §1, §2
(§3) The MMP selectivity assay was performed by using other recombinant human MMPs, including MMP-1, MMP-2, MMP-3, MMP-7, MMP-8, MMP-9, MMP-10, MMP-13, and MMP-14. The IC50 of the compounds for the other recombinant human MMPs was determined as described above in Example 1, and are shown in Table 2.

recombinant human MMP-3 = recombinant human MMP-3 (Homo sapiens (Human), UniProt P08254); test: MMP selectivity assay MMP-3; assay type: biochemical
Chain of recombinant human MMP-3 (P08254 100-477): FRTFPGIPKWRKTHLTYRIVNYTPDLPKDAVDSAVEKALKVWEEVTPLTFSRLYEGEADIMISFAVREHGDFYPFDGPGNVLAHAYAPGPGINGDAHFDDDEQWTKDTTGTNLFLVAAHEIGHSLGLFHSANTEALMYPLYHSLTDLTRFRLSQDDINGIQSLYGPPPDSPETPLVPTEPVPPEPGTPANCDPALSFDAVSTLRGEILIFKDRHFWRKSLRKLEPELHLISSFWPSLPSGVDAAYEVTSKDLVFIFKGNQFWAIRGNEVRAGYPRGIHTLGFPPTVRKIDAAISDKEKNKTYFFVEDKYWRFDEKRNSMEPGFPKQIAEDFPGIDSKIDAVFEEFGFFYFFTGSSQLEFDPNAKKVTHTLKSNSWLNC
Protocol: as §1, §2, §3

recombinant human MMP-8 = recombinant human MMP-8 (Homo sapiens (Human), UniProt P22894); test: MMP selectivity assay MMP-8; assay type: biochemical
Chain of recombinant human MMP-8 (P22894 101-467): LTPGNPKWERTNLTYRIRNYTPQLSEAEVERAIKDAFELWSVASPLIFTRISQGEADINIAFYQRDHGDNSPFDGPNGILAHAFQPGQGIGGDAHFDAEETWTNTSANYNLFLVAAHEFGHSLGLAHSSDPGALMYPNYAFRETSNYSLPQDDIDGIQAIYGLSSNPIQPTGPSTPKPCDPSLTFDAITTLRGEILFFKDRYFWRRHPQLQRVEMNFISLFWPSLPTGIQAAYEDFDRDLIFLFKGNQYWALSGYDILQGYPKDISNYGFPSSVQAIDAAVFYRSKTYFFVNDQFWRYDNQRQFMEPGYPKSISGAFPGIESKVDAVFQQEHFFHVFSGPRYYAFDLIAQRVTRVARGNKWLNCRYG
Protocol: as §1, §2, §3

recombinant human MMP-9 = recombinant human MMP-9 (Homo sapiens (Human), UniProt P14780); test: MMP selectivity assay MMP-9; assay type: biochemical
Chain of recombinant human MMP-9 (P14780 94-707): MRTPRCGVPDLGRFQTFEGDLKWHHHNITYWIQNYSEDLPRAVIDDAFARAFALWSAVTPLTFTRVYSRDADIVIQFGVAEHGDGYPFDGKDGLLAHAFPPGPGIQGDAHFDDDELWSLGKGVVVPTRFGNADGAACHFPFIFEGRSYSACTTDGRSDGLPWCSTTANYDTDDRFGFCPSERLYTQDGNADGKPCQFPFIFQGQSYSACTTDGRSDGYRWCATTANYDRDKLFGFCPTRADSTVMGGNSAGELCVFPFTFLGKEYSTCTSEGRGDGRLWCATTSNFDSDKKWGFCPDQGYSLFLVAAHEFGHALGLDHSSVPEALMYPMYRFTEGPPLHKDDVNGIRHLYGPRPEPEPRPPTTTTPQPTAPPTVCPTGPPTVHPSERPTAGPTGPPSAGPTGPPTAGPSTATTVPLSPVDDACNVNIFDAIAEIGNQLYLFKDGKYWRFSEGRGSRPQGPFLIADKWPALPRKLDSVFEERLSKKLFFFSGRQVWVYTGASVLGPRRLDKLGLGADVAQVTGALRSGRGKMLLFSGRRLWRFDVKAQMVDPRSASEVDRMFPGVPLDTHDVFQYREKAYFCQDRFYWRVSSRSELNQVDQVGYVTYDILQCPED
Protocol: as §1, §2, §3

recombinant human MMP-10 = recombinant human MMP-10 (Homo sapiens (Human), UniProt P09238); test: MMP selectivity assay MMP-10; assay type: biochemical
Chain of recombinant human MMP-10 (P09238 99-476): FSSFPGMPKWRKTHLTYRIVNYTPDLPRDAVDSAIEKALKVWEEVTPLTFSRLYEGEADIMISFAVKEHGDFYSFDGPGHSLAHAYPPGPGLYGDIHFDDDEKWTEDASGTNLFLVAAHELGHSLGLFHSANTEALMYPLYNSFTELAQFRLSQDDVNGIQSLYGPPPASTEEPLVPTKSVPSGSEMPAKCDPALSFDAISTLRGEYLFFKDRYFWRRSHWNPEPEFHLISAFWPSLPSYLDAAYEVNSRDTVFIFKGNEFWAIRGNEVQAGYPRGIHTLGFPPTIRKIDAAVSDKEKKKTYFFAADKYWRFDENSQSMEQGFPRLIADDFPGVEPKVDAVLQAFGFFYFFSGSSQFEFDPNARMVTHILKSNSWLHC
Protocol: as §1, §2, §3

recombinant human MMP-13 = recombinant human MMP-13 (Homo sapiens (Human), UniProt P45452); test: MMP selectivity assay MMP-13; assay type: biochemical
Protocol: as §1, §2, §3

recombinant human MMP-14 = recombinant human MMP-14 (Homo sapiens (Human), UniProt P50281); test: MMP selectivity assay MMP-14; assay type: biochemical
Protocol: as §1, §2, §3

[2] = system: UUO-induced renal fibrosis; test: SD rat kidney fibrosis model by unilateral ureteral occlusion (UUO); assay type: in vivo, Sprague Dawley rat
Protocol: This study was to evaluate the therapeutic efficacy of the MMP-12 inhibitor FC-4 on a renal fibrosis model by unilateral ureteral occlusion (UUO). Male Sprague Dawley (SD) rats (180-220 g, n=71) were used in this study. Animals were randomly divided into 4 groups: vehicle group (group-1, n=8), FC-4 2 mg/kg/day group (group-2, n=9), FC-4 6 mg/kg/day group (group-3, n=9), FC-4 20 mg/kg/day group (group-4, n=9). Animals were anesthetized with 2.5% isoflurane inhalation. The left ureter was ligated to create a unilateral ureteral occlusion (UUO) model to induce renal fibrosis. The test article FC-4 was administrated twice a day via oral delivery after modeling for 14 days. Peripheral blood serum was prepared at pre-modeling and day-15 (one day after last dosing). All animals were euthanized and processed for left kidney pathology studies.
Animals: Gender: Male, SD rats, 180-220 g, total 71. Certificate: 11400700272659, Beijing Vital River Laboratory Animal Technology Co., Ltd., China. Animal holding: Animals were maintained in a temperature-controlled environment with a 12 hours light/12 hours dark cycle and free access to food and water. Experimental procedures were performed according to IACUC guidelines in the KCI (SuZhou) Biotech Inc. (KCI) animal research facility. Model creation: Total 36 male SD rats were used in this study. After anesthesia with 2.5% isoflurane inhalation the animal abdomen was opened surgically. The left ureter was exposed and ligated close to the bladder to create the UUO model. After confirming no bleeding, the abdomen wall was closed in layers. The animals were maintained under temperature controlled pad (37° C.) for the recovery from anesthesia, and then were transferred to holding cages with regular food and water.
Experiment grouping: UUO modeling animals were divided into 4 groups randomly as vehicle (group-1, n=9), FC-4 2 mg/kg/day (group-2, n=9), FC-4 6 mg/kg/day (group-3, n=9), FC-4 20 mg/kg/day (group-4, n=9) (Table 4.1). Dosing regimen: All test articles were designed as an oral administration via a gastric perfusion. Test articles were designed to be delivered twice a day starting on the same day of modeling for 14 days (Table 4.1). Endpoints: 1) Blood collection: Peripheral blood was collected from all animals in each group and prepared for serum at pre-modeling and day-15 (one day after last dosing), stored at −80° C. All animals were euthanized according to KCI SOP. After confirming animal death without breath and heart beat, the left kidneys were perfused with cold PBS followed by 10% neutral formalin and collected for further pathology study. 2) Detection of serum BUN and creatinine: The serum BUN and creatinine level were detected with Hitachi 7060 automatic biochemical analyzer and related test kits. 3) Kidney pathology examination: 3a) Kidney H&E staining and analysis: Following KCI's pathologic SOP all left kidneys were fixed in 10% formalin for at least 24 h at room temperature. After fixation, the kidney was cut longitudinally to get the largest surface and dehydrated in graded ethanol, cleared in xylene, and embedded in paraffin. Thin sections (3-μm) were mounted on glass slides, dewaxed, rehydrated to distilled water, and stained with hematoxylin and eosin (H&E). All stained slides were scanned with NanoZoomer Digital Pathology (S210, Hamamaci, Japan) scanner. Semi quantitative evaluation of the degree of tubular epithelial flattening and dilatation were graded from 0-5 according to the percentage of tubular involvement: score 0=no damage; score 1=1-10% damage; score 2=10-25% damage; score 3=25-50% damage; score 4=50-75% damage; score 5=75-100% damage. Semi quantitative evaluation of the tubular necrosis is graded from 0 to 3 according to the percentage of tubular involvement: score 0=no necrosis; score 1=<25% necrosis; score 2=25-50% necrosis; score 3=>50% necrosis. The average of tubular flattening and dilatation and necrosis as the total tubular damage was presented. […]

Chain of recombinant human MMP-12 catalytic domain (P39900 106-263): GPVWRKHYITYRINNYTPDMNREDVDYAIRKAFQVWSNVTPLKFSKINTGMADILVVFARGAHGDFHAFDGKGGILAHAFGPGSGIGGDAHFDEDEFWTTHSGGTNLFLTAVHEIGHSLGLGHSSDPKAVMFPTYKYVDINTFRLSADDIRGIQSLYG

In the case of `Cc1cc(COc2ccc(Sc3ccoc3C3NC(=O)NC3=O)cc2)ccn1` (stereo not shown) [FC-4], the IC50 ([1]; Table 2 selectivity profile, read-out: MMP-12 activity (IC50)) is reported as < 10 nM, the IC50 ([1]; readout at 30 minutes, read-out: MMP-12 IC50) is reported as < 10 nM and the IC50 (recombinant human MMP-2) is reported as 100 to 1000 nM. It also gave an IC50 (recombinant human MMP-3) of 100 to 1000 nM, an IC50 (recombinant human MMP-8) of 10 to 100 nM and an IC50 (recombinant human MMP-9) of 100 to 1000 nM. It also gave an IC50 (recombinant human MMP-10) of 100 to 1000 nM, an IC50 (recombinant human MMP-13) of 10 to 100 nM and an IC50 (recombinant human MMP-14) of 1000 to 10000 nM. For the same compound, the “Collagen-IV deposition in cortex of left kidney (IHC)” value ([2]; 6 mg/kg/day, p<0.05) was “significant reduction”, the “Collagen-I deposition in cortex of left kidney (IHC)” value ([2]; 20 mg/kg/day) was “significant reduction” and the “Serum BUN elevation” value ([2]; 20 mg/kg/day p.o. bid, day-15, not statistically significant vs model) was “slightly limit the BUN elevation”. For the same compound, the “Collagen-IV deposition in cortex of left kidney (IHC)” value ([2]; 20 mg/kg/day, p<0.001) was “significant reduction”, the “Interstitial fibrosis score in cortex” value ([2]; 20 mg/kg/day, p<0.001) was “significant reduction” and the “Left kidney tubular damage score” value ([2]; 2, 6, 20 mg/kg/day, 20 more effective than 2 mg/kg/day (p<0.01)) was “clear dose dependent effect”. For the same compound, the “Interstitial inflammation in cortex (semi quantitative)” value ([2]; dose dependent efficacy) was “significant reduction”.
